# Key:
# [1] = test system: MCF7; experiment: Cytotoxicity against human MCF7 cells after 24 hrs; format: functional, cell-based
# [2] = test system: HL-60; experiment: Cytotoxicity against human HL60 cells after 24 hrs; format: functional, cell-based
# [3] = test system: CHO; experiment: Cytotoxicity against CHO cells after 24 hrs; format: cell-based, Cricetulus griseus
# [4] = test system: A-375; experiment: Cytotoxicity against human A375 cells after 24 hrs; format: functional, cell-based
# [5] = test system: A549; experiment: Cytotoxicity against human A549 cells after 24 hrs; format: functional, cell-based
# [6] = Homo sapiens, MCF7, 24 h, read-out: IC50
# [7] = Homo sapiens, HL-60, 24 h, read-out: IC50
# [8] = Cricetulus griseus, CHO, 24 h, read-out: IC50
# [9] = Homo sapiens, A-375, 24 h, read-out: IC50
# [10] = Homo sapiens, A549, 24 h, read-out: IC50
Compound,"IC50 [1, 6] [µg/mL]","IC50 [2, 7] [µg/mL]","IC50 [3, 8] [µg/mL]","IC50 [4, 9] [µg/mL]","IC50 [5, 10] [µg/mL]",IC50 ([1]; mcf7) [µg/mL],IC50 ([2]; hl-60) [µg/mL],IC50 ([3]; cho) [µg/mL],IC50 ([4]; a-375) [µg/mL],IC50 ([5]; a549) [µg/mL]
CC1=CC(=O)[C@H]2C(C)(C)CCC[C@]2(C)[C@H]1/C=C/C1=C[C@@H]2O[C@@H]1[C@H]1C(=O)OC(=O)[C@H]12,24.1,28.1,12.1,30.4,–,–,–,–,–,–
CC1=CC(=O)[C@H]2C(C)(C)CCC[C@]2(C)[C@H]1/C=C/C1=C[C@H]2O[C@H]1[C@@H]1C(=O)C=CC(=O)[C@@H]12,15.4,14.7,8.28,20.1,–,–,–,–,–,–
CC1=CC(=O)[C@H]2C(C)(C)CCC[C@]2(C)[C@H]1/C=C/C1=C[C@H]2O[C@H]1[C@@H]1C(=O)OC(=O)[C@@H]12,18.6,17,10.4,20.4,39.9,–,–,–,–,–
CC1=CC(=O)[C@H]2C(C)(C)CCC[C@]2(C)[C@H]1/C=C/C1=CC2OC1C1OCCC21 (stereo partly drawn),30.1,38.4,–,–,48.4,–,–,–,–,–
CC1=CC(=O)[C@H]2C(C)(C)CCC[C@]2(C)[C@H]1/C=C/C1=CC2OC1C1CCOC21 (stereo partly drawn),33.9,38,–,43.1,–,–,–,–,–,–
CC1=CC(=O)[C@H]2C(C)(C)CCC[C@]2(C)[C@H]1[C@@H]1O[C@@H]1c1ccoc1,20.1,19.4,9.61,26.1,31.1,–,–,–,–,–
CC1CC(=O)[C@H]2C(C)(C)CCC[C@]2(C)[C@H]1CCc1ccoc1 (stereo partly drawn),> 100,> 100,–,> 100,–,–,–,–,–,–
CC1(C)CCC[C@@]2(C)[C@H]1C(=O)CC(C)(C1(C)CC(=O)[C@H]3C(C)(C)CCC[C@]3(C)C1/C=C/c1ccoc1)[C@@H]2/C=C/c1ccoc1 (stereo partly drawn),11.2,13.9,6.91,16.8,23,–,–,–,–,–
CC1=CC(=O)[C@H]2C(C)(C)CCC[C@]2(C)[C@H]1C=O,38.1,39.7,34.9,35.1,–,–,–,–,–,–
CC1=CC(=O)[C@H]2C(C)(C)CCC[C@]2(C)[C@H]1CCc1ccoc1,> 100,87,–,60,–,–,–,–,–,–
CC1=CC(=O)[C@H]2C(C)(C)CCC[C@]2(C)[C@H]1/C=C/C1=C[C@H]2O[C@H]1[C@H]1C(=O)C=CC(=O)[C@H]12,15.7,14.1,8.19,19,35.9,–,–,–,–,–
CC1=CC(=O)[C@H]2C(C)(C)CCC[C@]2(C)[C@H]1/C=C/C1=C[C@H]2O[C@H]1[C@H]1C(=O)OC(=O)[C@H]12 (stereo in doubt; 3b),17,16.9,9.11,20,36.4,–,–,–,–,–
CC1=CC(=O)[C@H]2C(C)(C)CCC[C@]2(C)[C@H]1/C=C/C1=C[C@H]2O[C@H]1[C@H]1C(=O)OC(=O)[C@H]12 (stereo in doubt; 3c),–,–,–,–,–,23.18,21.73,11.08,27.84,–
COC1CCC2C3C=C(/C=C/[C@H]4C(C)=CC(=O)[C@H]5C(C)(C)CCC[C@]45C)C(O3)C2O1 (stereo in doubt; 3g),28.1,27.7,13.1,30.2,43.2,–,–,–,–,–
COC1CCC2C3OC(C=C3/C=C/[C@H]3C(C)=CC(=O)[C@H]4C(C)(C)CCC[C@]34C)C2O1 (stereo in doubt; 3h),28,27.1,14.1,32.1,43,–,–,–,–,–
COC1CCC2C3C=C(/C=C/[C@H]4C(C)=CC(=O)[C@H]5C(C)(C)CCC[C@]45C)C(O3)C2O1 (stereo in doubt; 3i),–,–,–,–,–,29.3,28.41,13.91,31.12,47.71
COC1CCC2C3OC(C=C3/C=C/[C@H]3C(C)=CC(=O)[C@H]4C(C)(C)CCC[C@]34C)C2O1 (stereo in doubt; 3j),–,–,–,–,–,–,–,14.03,–,–
CC1=CC(=O)[C@H]2C(C)(C)CCC[C@]2(C)[C@H]1/C=C/C1=CC2OC1C1C(=O)c3ccccc3C(=O)C21 (stereo in doubt; 3k),15,13.7,7.94,18.7,–,–,–,–,–,–
CC1=CC(=O)[C@H]2C(C)(C)CCC[C@]2(C)[C@H]1/C=C/C1=CC2OC1C1C(=O)c3ccccc3C(=O)C21 (stereo in doubt; 3l),–,–,–,–,34.5,14.72,13.88,7.91,18.64,–
CC1=CC(=O)[C@H]2C(C)(C)CCC[C@]2(C)[C@H]1/C=C/C1=CC2OC1C1CNCC21 (stereo in doubt; 3o),36.7,39.9,19.2,–,–,–,–,–,–,–
CC1=CC(=O)[C@H]2C(C)(C)CCC[C@]2(C)[C@H]1/C=C/C1=CC2OC1C1CNCC21 (stereo in doubt; 3p),–,–,–,–,–,31.98,43.18,–,–,–
CC1=CC(=O)[C@H]2C(C)(C)CCC[C@]2(C)[C@H]1/C=C/c1ccoc1 [HEDYCHENONE],19.4,17.7,8.2,21.1,33.1,–,–,–,–,–
CC1(C)CCC[C@]2(C)[C@@H](/C=C/c3ccoc3)C(CO)=CC(=O)[C@@H]12 [YUNNACORONARIN D],34.3,26.2,39,40,50.1,–,–,–,–,–

# — ChEMBL document CHEMBL1156159, “Synthesis, cytotoxic activity and structure-activity relationships of hedychenone analogues” (Bioorg Med Chem Lett, 2010)
